# Test results reported in patent US9018216B2, “Solid forms of (R)-2-(5-(2-(3-ethylureido)-6-fluoro-7-(tetrahydrofuran-2-yl)-1H-benzo[d]imidazol-5-yl)pyrimidin-2-yl)propan-2-yl dihydrogen phosphate and salts thereof” (priority 2012, dated 2015).
# Where two headings read alike, the source gives them in different places.
# What was measured:
# [1] = Stability of the solid forms (net increase in total impurities at 40 C/30% RH); assay type: physicochemical; conditions: 17 days
# [2] = system: Staphylococcus aureus ATCC 29213; test: microbe, parasite or virus in culture; assay type: cell-based; conditions: Staphylococcus aureus, Protocol 1
# [3] = system: Enterococcus faecalis ATCC 29212; test: Gyrase MIC determination using microdilution broth method (Protocol 1); assay type: cell-based; conditions: Enterococcus faecalis, ATCC29212, Enterococcus faecalis ATCC 29212, with 3% Laked Horse Blood, read-out: MIC
# [4] = system: Enterococcus faecium ATCC 49624; test: as above; assay type: cell-based; conditions: ATCC49624, Enterococcus faecium ATCC 49624 with 3% Laked Horse Blood, read-out: MIC
# [5] = system: Streptococcus pneumoniae ATCC 10015; test: as above; assay type: cell-based; conditions: ATCC10015, Streptococcus pneumoniae ATCC 10015, with 3% Laked Horse Blood
# Escherichia coli AG100 = test: Gyrase MIC determination against Gram negatives using microdilution broth method (Protocol 2); assay type: cell-based; conditions: read-out: MIC
# Procedure: Compounds of this invention were tested for antimicrobial activity by susceptibility testing in liquid media. […] The specific protocols used were as follows:
# Protocol 2: Gyrase MIC Determination of Compounds Against Gram Negatives Using Microdilution Broth Method
# Strains (MHII Media for all; Broth and Agar): • 1. Escherichia coli AG100 WT • 2. Escherichia coli AG100 tolC • 3. […] Haemophilus influenzae Rd0894 (AcrA−)
# Inoculum Prep: • 1. Using the BBL Prompt kit, picked 5 big or 10 small, well separated colonies from cultures grown on agar medium and inoculated 1 mL sterile saline that came with the kit. • 2. Vortexed the wells for ˜30 s to give a suspension of ˜10^8 cells/mL. Actual density could be confirmed by plating out dilutions of this suspension. • 3. Diluted the suspension 1/100 by transferring 0.15 mL of cells into 15 mL (˜10^6 cells/mL) sterile broth (see below) for each plate of compounds tested, swirled to mix. […] Used 50 μl cells (˜5×10^4 cells) to inoculate each microtiter well containing 50 μl of the drug diluted in broth (see below).
# Drug Dilutions, Inoculation, MIC Determination: • 1. […] Diluted drug/compound stocks to 200× desired final concentration in 50 μL DMSO. If starting concentration of MICs was 8 μg/mL final concentration, then required 6.25 μL of stock+43.75 μL DMSO. Each 200× stock was placed in a separate row of column 1 of a new 96 well microtiter plate. • 3. Added 25 μL of DMSO to columns 2-12 of all rows of the microtiter plate containing 200× compound stocks and serially diluted 25 μL from column 1 through column 11, changed tips after each column. i.e. 25 μL compound+25 μL DMSO=2× dilution. Left “no compound” DMSO well at the end of the series for control. • 4. For each strain tested, prepared two microtiter plates with 50 μL of MHII broth using a Matrix pipettor. • 5. Transferred 0.5 μL of each dilution (w/Matrix auto-pipettor) to 50 μL of medium/microtiter well prior to the addition of 50 μl of cells. The usual starting concentration of compound was 8 μg/mL after the 1/200 dilution into medium+cells−compound concentrations decreased in 2× steps across the rows of a microtiter plate. All MICs were done in duplicate. • 6. All wells were inoculated with 50 μl of diluted cell suspension (see above) to a final volume of 100 μl. • 7. After inoculum was added, each well was mixed thoroughly with a manual multichannel pipettor; same tips were used going from low to high concentration of drug in the same microtiter plate. • 8. Plates were incubated at 37° C. for at least 18 hours. • 9.
# Examined the test plates after the correct incubation time and read the MIC endpoint at the concentration where a marked reduction occurred in the appearance of growth on the test plate as compared to that of growth on the positive control plates.
compound,measurement,setting,value
"CCNC(=O)Nc1nc2cc(-c3cnc(C(C)(C)OP(=O)([O-])[O-])nc3)c(F)c([C@H]3CCCO3)c2[nH]1.[Na+].[Na+] [Form X, disodium (R)-2-(5-(2-(3-ethylureido)-6-fluoro-7-(tetrahydrofuran-2-yl)-1H-benzo[d]imidazol-5-yl)pyrimidin-2-yl)propan-2-yl phosphate]",Net % increase in total impurities,[1],0.59%
same,MIC,"[2]; ATCC29213, Staphylococcus aureus ATCC 29213 GyrB T173I",> 16 µg/mL
same,MIC,"[2]; ATCC29213, Staphylococcus aureus ATCC 29213 with 50% Mouse Serum",2 µg/mL
same,MIC,[3],2 µg/mL
same,MIC,[4],4 µg/mL
same,MIC,[5],0.25 µg/mL
same,MIC,Escherichia coli AG100; Escherichia coli AG100 WT,> 16 µg/mL
same,MIC,"Escherichia coli AG100; Escherichia coli, AG100, Escherichia coli AG100 tolC",2 µg/mL
